Laboratory results: patent US20160297763A1, “Heteroaryl hydroxamic acid derivatives and their use in the treatment, amelioration or prevention of a viral disease” (priority 2011, published 2016)
Counter-ions that a name gives are not always drawn.

Tests used:
[1] = molecular target: PB2 cap binding domain (CBD) (Influenza A virus, UniProt Q9Q0V1); assay: biochemical; set-up: species or system avian H5N1 influenza virus
Chain of PB2 cap binding domain (CBD) (Q9Q0V1 318-483 limits assumed): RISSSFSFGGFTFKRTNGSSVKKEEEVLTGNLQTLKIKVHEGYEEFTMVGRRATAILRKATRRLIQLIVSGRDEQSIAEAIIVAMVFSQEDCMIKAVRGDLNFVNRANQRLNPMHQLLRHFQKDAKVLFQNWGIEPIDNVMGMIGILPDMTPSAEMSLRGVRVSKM

SMILES | Kd [1] [µM] | melting point
Cc1c(-c2ccccc2)sc2nc(NCCN(C)C)[nH]c(=O)c12 [SAV-7583] | 68 | 
Cc1c(-c2cc(C#N)ccc2Cl)sc2nc(N)[nH]c(=O)c12 |  | > 350 °C
Cc1c(-c2cccnc2)sc2nc(N)[nH]c(=O)c12 |  | 280 to 290 °C
O=C(c1ccc(N2CCCC2)cn1)N(Cc1ccccc1)OCc1ccccc1 |  | 95 to 100 °C
CN(C)CCNC(=O)c1cccc(-c2ccnc(C(=O)N(O)Cc3ccccc3)c2)c1 |  | 65 to 70 °C
Cc1c(-c2ccc(Cl)c(C(F)(F)F)c2)sc2nc(N)[nH]c(=O)c12 |  | > 350 °C
Cl.O=C(NO)c1cc(N2CCCCC2)ccn1 (hydrate or solvate) |  | 200 to 202 °C
Cl.O=C(NO)c1cc(NS(=O)(=O)Cc2ccc(Cl)cc2)ccn1 |  | 210 to 230 °C
O=C(NOC(=O)c1cc(N2CCCCC2)ccn1)c1cc(N2CCCCC2)ccn1 |  | 210 to 215 °C
CN(O)C(=O)c1cc2ccccc2cn1 |  | 110 to 115 °C
Cl.O=C(NO)c1cc(NS(=O)(=O)Cc2cccc(Cl)c2Cl)ccn1 |  | 210 to 218 °C
Cc1c(-c2ccc(F)cc2F)sc2nc(N)[nH]c(=O)c12 |  | 330 to 350 °C
O=C(c1cc(C2=CCNCC2)ccn1)N(O)Cc1ccccc1 (as salt: hydrochloride) |  | 140 to 150 °C
CCONC(=O)c1ccc(-c2cccc(CN(C)Cc3ccccc3)c2)cn1.Cl (hydrate or solvate) |  | 85 to 90 °C
O=C(NO)c1cc2ccccc2cn1 |  | 160 to 165 °C
O=C(c1cc(-c2ccc(Cl)cc2)ccn1)N(O)Cc1ccccc1 |  | 190 to 195 °C
O=C(c1cc(N2CCC3(CC2)OCCO3)ccn1)N(O)Cc1ccccc1 |  | 98 to 102 °C
Cc1cccc(-c2ccc(C(=O)N(O)Cc3ccccc3)nc2)c1 |  | 139 to 140 °C
Cl.O=C(NO)c1cc(NS(=O)(=O)Cc2ccccc2F)ccn1 |  | 209 to 216 °C
O=C(c1ccc(N2CCCC2)cn1)N(O)Cc1ccccc1 |  | 115 to 120 °C
CC(C)(C)OC(=O)NC1CCN(c2ccnc(C(=O)N(O)Cc3ccccc3)c2)CC1 |  | 135 to 140 °C
O=C(c1cc(-c2cccc(CO)c2)ccn1)N(O)Cc1ccccc1 |  | 150 to 155 °C
CC(C)(C)OC(=O)N1CC=C(c2ccnc(C(=O)N(O)Cc3ccccc3)c2)CC1 |  | 125 °C

SMILES | Kd [1] [µM] | melting point
NC(=O)c1ccc(-c2ccnc(C(=O)N(O)Cc3ccccc3)c2)cc1 |  | 155 to 160 °C
O=C(NO)c1cc(N2CCOCC2)ccn1 |  | 215 to 220 °C (dec.)
CC(C)c1cccc(-c2ccc(C(=O)N(O)CCc3ccccc3)nc2)c1 |  | 110 to 115 °C
Cc1sc2nc(N)[nH]c(=O)c2c1-c1ccc(F)cc1 |  | 360 to 362 °C
O=C(c1cc(N2CCCC(F)(F)C2)ccn1)N(O)Cc1ccccc1 |  | 140 to 145 °C
O=C(c1cc(-c2ccccc2)ccn1)N(O)Cc1ccccc1 |  | 160 to 165 °C
Cl.O=C(c1cc(N2CCC(F)(F)C2)ccn1)N(O)Cc1ccccc1 |  | 162 to 166 °C
Cc1c(-c2ccccc2)sc2nc(NCCNC(=O)CCCN3CCN(C)CC3)[nH]c(=O)c12 |  | 192 to 196 °C
Cc1c(Cc2ccccc2)sc2nc(N)[nH]c(=O)c12 |  | 292 to 294 °C
Cc1c(-c2ccccc2)sc2nc(NCCCO)[nH]c(=O)c12 |  | 227 to 229 °C
Cl.O=C(NO)c1cc(NS(=O)(=O)Cc2cc(Cl)cc(Cl)c2)ccn1 |  | 203 to 205 °C
Cc1c(-c2ccc(Cl)cc2F)sc2nc(N)[nH]c(=O)c12 |  | 320 to 340 °C
CCONC(=O)c1cc(N2CCOCC2)ccn1.Cl (hydrate or solvate) |  | 200 to 202 °C
CC(c1ccccc1)c1cc2c(=O)[nH]c(N)nc2s1 (stereo not shown) |  | 260 to 270 °C
Cc1c(-c2c(F)ccc(Cl)c2F)sc2nc(N)[nH]c(=O)c12 |  | 330 to 350 °C
Cl.O=C(c1cc(NS(=O)(=O)Cc2cccc(F)c2)ccn1)N(O)Cc1ccccc1 |  | 111 to 113 °C
O=C(c1ccc(N2CCCCC2)cn1)N(O)Cc1ccccc1 |  | 110 to 115 °C
O=C(c1cc(-c2ccc(Cl)c(Cl)c2)ccn1)N(O)Cc1ccccc1 |  | 125 to 130 °C
Cc1c(-c2cnn(C)c2)sc2nc(N)[nH]c(=O)c12 [SAV-7603] | 42 | 
Cc1c(-c2ccc(Cl)c(C(=O)N(C)C)c2)sc2nc(N)[nH]c(=O)c12 |  | 300 to 320 °C
O=C(c1cc(N2CCCCC2)ccn1)N(O)CCCc1ccccc1 |  | 125 to 130 °C
C[C@@H]1CN(c2ccnc(C(=O)N(O)Cc3ccccc3)c2)C[C@H](C)O1 |  | 180 to 185 °C
CC(C)c1cccc(-c2ccc(C(=O)NO)nc2)c1 |  | 130 to 135 °C

SMILES | Kd [1] [µM] | melting point
Cc1c(-c2cnccn2)sc2nc(N)[nH]c(=O)c12 |  | 280 to 300 °C
Cc1c(-c2ccccc2)sc2nc(N)[nH]c(=O)c12 |  | 356 to 358 °C
Cc1c(-c2ccc(F)c(C#N)c2F)sc2nc(N)[nH]c(=O)c12 |  | 360 to 380 °C
O=C(NOCc1ccccc1)c1cc2ccccc2cn1 |  | 85 to 90 °C
Cc1c(-c2ccc(Cl)nc2)sc2nc(N)[nH]c(=O)c12 |  | 230 to 250 °C
Cc1c(Cc2ccc(Cl)cc2)sc2nc(N)[nH]c(=O)c12 |  | 300 to 320 °C
CCONC(=O)c1ccc(-c2ccccc2)cn1 |  | 100 to 105 °C
O=C(c1cc(C2CCCCC2)ccn1)N(O)Cc1ccccc1 |  | 106 to 110 °C
Cc1c(-c2ccc(F)c(C#N)c2)sc2nc(N)[nH]c(=O)c12 |  | 330 to 350 °C
Cc1c(-c2cc(CN(C)C)ccc2F)sc2nc(N)[nH]c(=O)c12 |  | 230 to 250 °C
Cc1cc(-c2sc3nc(N)[nH]c(=O)c3c2C)ccc1Cl |  | 330 to 350 °C
CCONC(=O)c1cc(N)ccn1.Cl (hydrate or solvate) |  | 114 to 120 °C
O=C(c1cc(N2CCC(N3CCCC3)CC2)ccn1)N(O)Cc1ccccc1 |  | 135 to 140 °C
O=C(NO)c1ccc(N2CCCC2)cn1 |  | 220 to 225 °C
O=C(c1cc(C2=CCCCC2)ccn1)N(O)Cc1ccccc1 |  | 118 to 122 °C
Cc1c(C2=CCNCC2)sc2nc(N)[nH]c(=O)c12 |  | 290 to 310 °C
CCONC(=O)c1cc(NCCCc2cccc(Cl)c2)ccn1 |  | 100 to 105 °C
Cc1c(-c2ccc(Cl)c(F)c2)sc2nc(N)[nH]c(=O)c12 |  | 350 to 370 °C
Cl.O=C(NO)c1cc(NS(=O)(=O)Cc2ccccc2Cl)ccn1 |  | 215 to 220 °C
Cl.O=C(NO)c1cc(NS(=O)(=O)Cc2cccc(F)c2)ccn1 |  | 195 to 200 °C
NC(=O)c1cccc(-c2ccnc(C(=O)N(O)Cc3ccccc3)c2)c1 |  | 158 to 162 °C
